The text below walks through data of patent publication US11174234B2, “Crystal form of 4-phenylthiazole derivative and preparation method thereof” (SICHUAN KELUN PHARMACEUTICAL RESEARCH INSTITUTE CO., LTD., priority 2018, dated 2021).

Series [1] is described as follows: Solubility test (HPLC external standard method). Format: physicochemical. On the procedure: In this Experimental Example, the solubility of two crystal form in different pH of simulated human gastric juice were tested to study the solubility of the crystal forms.
Solubility test: HPLC external standard method
(§1) Chromatographic column: octadecyl silane bonded silica gel as filler
Mobile phase: phosphate buffer (pH3.5):methanol:acetonitrile=2:9:9 (volume ratio)
Detection wavelength: 215 nm
Excess amount of Crystal Form D and Crystal Form Y were placed in tubes with plug, to which were added 10 ml of water (purified water), hydrochloric acid solution of pH 1.2, hydrochloric acid solution of pH 2.0, acetate buffer of pH 4.0, phosphate buffers of pH 4.5, 5.0, 6.8, 8.0, respectively, and vibrated on 37° C. water bath, then filtered. The subsequent filtrate was subjected to HPLC assay.
The preparations of various pH buffers can be referred to “Guideline for Dissolution Test of Normal Oral Solid Formulation” issued by Center for Drug Evaluation of China Food and Drug Administration for dissolution medium, and are detailed as follows:
The hydrochloric acid solution of pH 1.2 is prepared by diluting 7.65 ml of hydrochloric acid with water to 1000 ml and mixing well.
The hydrochloric acid solution of pH 2.0 is prepared by diluting 1.17 ml of hydrochloric acid with water to 1000 ml and mixing well.
The acetate buffer of pH 4.0 is prepared by diluting mixture of 1.22 g of sodium acetate with 20.5 ml of 2 mol/L acetic acid solution with water to 1000 ml and mixing well. The 2 mol/L acetic acid solution is prepared by diluting 114 mL of glacial acetic acid with water to 1000 ml.
The phosphate buffers of pH 4.5, 5.0, 6.8, 8.0 are prepared by adjusting pH of 0.2 mol/L monopotassium phosphate solution with 0.2 mol/L sodium hydroxide solution to pH 4.5, 5.0, 6.8, 8.0, respectively. The 0.2 mol/L monopotassium phosphate solution is prepared by dissolving 27.22 g of monopotassium phosphate in water and diluting to 1000 mL. The 0.2 mol/L sodium hydroxide solution is prepared by dissolving 8.00 g of sodium hydroxide in water and diluting to 1000 mL.

Series [2] is described as follows: High temperature stability test. Format: physicochemical. The following applies: 60° C.; for Purity Change: sealed glass bottle.
Text: (§2) In this Experimental Example, high temperature, high humidity tests were used to study the chemical stability of the crystal form according to the invention.
(§3) Purity test: HPLC method (Chinese Pharmacopoeia 2015, Volume IV, general principles 0512)
as §1
(§4) Mobile phase A: 0.02 mol/L phosphate buffer (pH 3.0)-methanol-acetonitrile
(§5) Mobile phase B: methanol-acetonitrile-water
(§6) Detection wavelength: 215 nm.
(§7) Elution condition: gradient elution
The Crystal Form D of the compound of formula I was placed in a sealed and clean glass bottle and placed in 60° C. constant temperature oven. Samples were taken 10 day/30 day respectively for impurity content determination.
(§8) Note: Purity Change=(Difference of sample purity at day 0 and sample purity after a certain period)/Sample purity at day 0×100%.

The nature of series [3]: High humidity stability test. Type of series: physicochemical. The following applies: RH 92.5%; for Weight loss on drying / Purity Change: room temperature; for Purity Change: open dish.
Text: as §2, §3, §1, §4, §5, §6, §7
Weight loss on drying assay: Chinese Pharmacopoeia 2015, Volume IV, general principles 0831
as §8
The Crystal Form D of the compound of formula I was spread in open petri dish with thickness ≤5 mm, at room temperature, in constant temperature incubator of relative humidity (RH) 92.5%. Samples were taken 10 day/30 day for impurity content determination.

Series [4] in a line: Long-term and accelerated stability test. Type of series: physicochemical.
Text: as §3, §1, §4, §5, §6, §7
The Crystal Form D of the compound of formula I was packed with inner bag (pharmaceutical low density polyethylene bag) and outer bag (pharmaceutical polyester/aluminum/polyethylene composite film bag), placed under the following stability testing conditions for stability tests.

Series [5] in a line: Pharmacokinetic study in dogs. Type of series: in vivo. The following applies: administered to dogs.
A short description of series [6]: Pharmacokinetic study in mice. Format: in vivo. The following applies: administered to mice.
Series [7] can be described thus: Pharmacokinetic study in monkeys. The following applies: administered to monkeys. Format: in vivo.
Series [8] is described as follows: Thermogravimetric Analysis (TGA). Type of series: physicochemical. The following applies: heating rate 10K/min, N2 purge, 35-500° C. On the procedure:
“Thermogravimetric Analysis (TGA)” is a common method for determining the thermal stability of compounds. The TGA curve can be measured, for example, on a Mettler Toledo TGA1 instrument. The error of TGA may be within about ±0.5 wt %. The term “substantially identical” means that such error variations are considered. Exemplary test conditions are: temperature range is 35-500° C., heating rate is 10 K/min, and purge gas is nitrogen (99.99%).
TGA is collected on Mettler Toledo TGA1 Thermogravimetric Analyzer, purge gas is N2 (99.99%), 100 ml/min; heating rate: 10K/min; temperature range: 35-500° C.
In the curve, the sample began to decompose at about 230° C. and no weight loss was found before decomposition.

The mark [9] stands for this setting: hydrochloric acid solution pH 1.2, 37° C.
Where [10] appears, read: hydrochloric acid solution pH 2.0, 37° C.
Setting [11] is: phosphate buffer pH 4.5, 37° C.
Setting [12] is: phosphate buffer pH 5.0, 37° C.
[13] abbreviates: phosphate buffer pH 6.8, 37° C.
The mark [14] stands for this setting: phosphate buffer pH 8.0, 37° C.
The mark [15] stands for this setting: high temperature condition, up to 30 day.
The mark [16] stands for this setting: high humidity condition, up to 30 day.

≈ marks a conversion by molar mass, not a printed value.

Take `CCCCCCO[C@@H](C)c1cccc(-c2csc(NC(=O)c3cc(Cl)c(/C=C(\C)C(=O)O)c(Cl)c3)n2)c1OC` [Crystal Form D, 4-phenylthiazole derivative]: the Solubility worked out at 10.6478 µg/mL (≈ 18 µM) in series [1] (acetate buffer pH 4.0, 37° C.); 19.1353 µg/mL (≈ 32.3 µM) in series [1] (setting [9]); 14.5872 µg/mL (≈ 24.7 µM) in series [1] (setting [10]); 11.4829 µg/mL (≈ 19.4 µM) in series [1] (setting [11]); 13.8229 µg/mL (≈ 23.4 µM) in series [1] (setting [12]); 36.0017 µg/mL (≈ 60.9 µM) in series [1] (setting [13]). Moreover, the Solubility in series [1] (setting [14]) stood at 110.5589 µg/mL (≈ 187 µM); in series [1] (water (purified water), 37° C.), 41.3607 µg/mL (≈ 69.9 µM). Further, in series [1] (simulated human gastric juice with various pH), the “Solubility compared with Crystal Form Y” value was “significantly better than that of Crystal Form Y”. For the same molecule, the “Purity Change” value in series [2] (10 day) came to 0.04%; in series [2] (30 day), 0.03%; in series [3] (10 day) it was 0.05%; in series [3] (30 day), 0%. Further, the “Change in crystal form (XRPD)” value in series [2] (setting [15]) and in series [3] (setting [16]) was “no change in crystal form” in each case. The “Change in purity (in words)” value in series [2] (setting [15]) and in series [3] (setting [16]) was “did not show obvious change in purity” each time. For the same molecule, the “Weight loss on drying” value in series [3] (0 day) was 0.31%; in series [3] (10 day), 0.35%; in series [3] (30 day), 0.36%. Further, the “Change in weight loss on drying (in words)” value in series [3] (setting [16]) is reported as “little change in weight loss on drying”. Besides, the “Change in purity or crystal form (in words)” value in series [4] (6 month or more under long-term and accelerated conditions) is reported as “no change in purity or crystal form”. Besides, the Chemical purity is on record as 99.83% in series [4] (Accelerated (40° C. ± 2° C./RH75% ± 5%), 0 day); 99.83% in series [4] (Accelerated (40° C. ± 2° C./RH75% ± 5%), 6 month); 99.83% in series [4] (Long-term (25° C. ± 2° C./RH60% ± 5%), 0 day); 99.83% in series [4] (Long-term (25° C. ± 2° C./RH60% ± 5%), 6 month); 99.83% in series [4] (Long-term (30° C. ± 2° C./RH65% ± 5%), 0 day); 99.83% in series [4] (Long-term (30° C. ± 2° C./RH65% ± 5%), 6 month). In addition, the Pharmacokinetic properties result in series [5], in series [6] and in series [7] was “good pharmacokinetic properties” in each case. Besides, in series [8], the “Temperature at which the sample began to decompose (TGA)” value is “about 230 °C”.

With `CCCCCCO[C@@H](C)c1cccc(-c2csc(NC(=O)c3cc(Cl)c(/C=C(\C)C(=O)O)c(Cl)c3)n2)c1OC` [Crystal Form Y, 4-phenylthiazole derivative], the Solubility amounted to 0.4327 µg/mL (≈ 0.731 µM) in series [1] (acetate buffer pH 4.0, 37° C.); 0.7616 µg/mL (≈ 1.29 µM) in series [1] (setting [9]); 0.4915 µg/mL (≈ 0.831 µM) in series [1] (setting [10]); 0.5623 µg/mL (≈ 0.951 µM) in series [1] (setting [11]); 0.6993 µg/mL (≈ 1.18 µM) in series [1] (setting [12]); 3.2046 µg/mL (≈ 5.42 µM) in series [1] (setting [13]). For the same molecule, the Solubility was 43.0713 µg/mL (≈ 72.8 µM) in series [1] (setting [14]) and 5.2325 µg/mL (≈ 8.85 µM) in series [1] (water (purified water), 37° C.).

Broadly, the Solubility is how much of the substance goes into solution per volume. The low end stands for a poorly soluble substance, the high end for a readily soluble substance.
